{
  "source": "patent US20240238232A1",
  "about": "“COMPOSITIONS AND METHODS FOR THE REDUCTION OR TREATMENT OF INSULIN RESISTANCE AND METABOLIC CONDITIONS” (AXCELLA HEALTH INC., priority 2018, published 2024)",
  "system": "Human CCL2 (MCP-1)",
  "assay": "MCP1/CCL2 secretion in primary human hepatocytes (FFA + TNFα, ELISA after 24 h)",
  "format": "cell-based",
  "settings": "for MCP1 expression relative to Control, Mean: baseline subtracted; for MCP1/CCL2 secretion: primary human hepatocytes from two healthy donors, FFA + TNFα, 24 h",
  "method": "Hepatocyte lipotoxicity appears to be a central driver of hepatic cellular injury via oxidative stress and endoplasmic reticulum (ER) stress. The ability of amino acids to influence steatosis (lipid accumulation) and inflammation in hepatocytes was assessed using human primary hepatocytes (Lonza, TRL).\nPrimary hepatocytes lot nos. from two healthy human donors were seeded on day 0 at density of 6e04 cells in 96 well optical microplates (Thermofisher) in hepatocyte plating media (William's E medium (Gibco) supplemented with 10% heat-inactivated FBS (Atlanta Bio), 2 mM Glutamax (Gibco), and 0.2% Primocin (InVivoGen) and incubated for 6 hours at 37° C., 5% CO2. After 6 hours, cells were washed twice and incubated overnight at 37° C., 5% CO2 with Hepatocytes defined medium (Corning) supplemented with 2 mM Glutamax (Gibco), and 1×Penicillin/Streptomycin. On day 1, cells were washed twice and incubated for 24 h in the hepatocyte culture media in the same conditions described above.\nOn day 2, cells were washed twice with DPBS 1 X (Gibco) and maintained in amino acid-free WEM (US Biologicals) containing a defined custom amino acid concentration based on the mean physiological concentrations in blood. The values are published in the Human Metabolome Database (Wishart D S, Tzur D, Knox C, et al., HMDB: the Human Metabolome Database. Nucleic Acids Res. 2007 January; 35 (Database issue): D521-6. 17202168; which is hereby incorporated by reference in its entirety). This custom media is supplemented with 11 mM Glucose, 0.272 mM Sodium Pyruvate, and a dose curve of defined amino acid compositions (i.e., vehicle, LIVRQ+N-acetylcysteine, LIVRQ, RQ+N-acetylcysteine, N-acetylcysteine alone, LIV, or individually with L-Leucine, L-Isoleucine, L-Valine, L-Arginine, L-Glutamine, and L-Cysteine) at various ranges of concentrations. Cells were maintained in this defined media for 24 hours at 37° C., 5% CO2.\nCo-treatment with free fatty acids and different amino acids combination After pre-treatment, cells were exposed to free fatty acids (FFA) at 250 uM with a ratio of 2:1 (Oleate: Palmitate) supplemented with TNF-α (Thermofisher) at 1 ng/ml or vehicle. Cells were incubated with the FFAs mixture and the different amino acids combinations for 24 hours at 37° C., 5% CO2. After 24 hours incubation, media was removed for cytokine analysis and replaced by fresh media containing the same stimulus conditions and amino acid concentrations. Cells were incubated for an additional 48 hours for a total of 72 hours of FFA and TNFα stimulation.\nHuman CCL2 (MCP-1) was measured by ELISA (Human […] DuoSet ELISA, R&D Systems) at ⅕ or 1/10 dilution in 1 X Reagent Diluent (Reagent Ancillary Kit 2, R&D Systems). Data were normalized to the specific per well cell density determined by nuclei count stained by Hoechst 3342 (Life technologies) in the fluorescence microscopy described below.\nMCP1 CCL2 Secretion Tables 56-59 show the baseline subtracted secretion of MCP1/CCL2 in primary human hepatocytes cells from two healthy donors (donor 1 for Tables 56 and 57, and donor 2 for Tables 58 and 59).",
  "data": [
    {"smiles": "CC(C)[C@H](N)C(=O)O", "note": "[Valine, L-Valine]", "values": [
      {"measurement": "MCP1 expression relative to Control, Mean", "setting": "Donor 1, Conc. 234 μM", "result": "−2.4E−15"},
      {"measurement": "MCP1 expression relative to Control, Mean", "setting": "Donor 1, Conc. 4684 μM", "result": 23.6867},
      {"measurement": "MCP1 expression relative to Control, Mean", "setting": "Donor 1, Conc. 11710 μM", "result": 77.73},
      {"measurement": "MCP1 expression relative to Control, Mean", "setting": "Donor 1, Conc. 23420 μM", "result": 14.17},
      {"measurement": "MCP1 expression relative to Control, Mean", "setting": "Donor 2, Conc. 234 μM", "result": "−1.4E−14"},
      {"measurement": "MCP1 expression relative to Control, Mean", "setting": "Donor 2, Conc. 4684 μM", "result": 10.79},
      {"measurement": "MCP1 expression relative to Control, Mean", "setting": "Donor 2, Conc. 11710 μM", "result": 38.25},
      {"measurement": "MCP1 expression relative to Control, Mean", "setting": "Donor 2, Conc. 23420 μM", "result": "−30.7921"},
      {"measurement": "MCP1/CCL2 secretion", "result": "did not have an effect"}
    ]},
    {"smiles": "CC(C)C[C@H](N)C(=O)O", "note": "[Leucine, L-Leucine]", "values": [
      {"measurement": "MCP1 expression relative to Control, Mean", "setting": "Donor 1, Conc. 153 μM", "result": "5.92E−16"},
      {"measurement": "MCP1 expression relative to Control, Mean", "setting": "Donor 1, Conc. 3054 μM", "result": 3.34},
      {"measurement": "MCP1 expression relative to Control, Mean", "setting": "Donor 1, Conc. 7635 μM", "result": 1.896},
      {"measurement": "MCP1 expression relative to Control, Mean", "setting": "Donor 1, Conc. 15270 μM", "result": "−1.368"},
      {"measurement": "MCP1 expression relative to Control, Mean", "setting": "Donor 2, Conc. 153 μM", "result": "−4.7E−15"},
      {"measurement": "MCP1 expression relative to Control, Mean", "setting": "Donor 2, Conc. 3054 μM", "result": 16.11},
      {"measurement": "MCP1 expression relative to Control, Mean", "setting": "Donor 2, Conc. 7635 μM", "result": "−2.988"},
      {"measurement": "MCP1 expression relative to Control, Mean", "setting": "Donor 2, Conc. 15270 μM", "result": "−26.6436"},
      {"measurement": "MCP1/CCL2 secretion", "result": "did not have an effect"}
    ]},
    {"smiles": "CC[C@H](C)[C@H](N)C(=O)O", "note": "[Isoleucine, L-Isoleucine]", "values": [
      {"measurement": "MCP1 expression relative to Control, Mean", "setting": "Donor 1, Conc. 66 μM", "result": "−1.2E−15"},
      {"measurement": "MCP1 expression relative to Control, Mean", "setting": "Donor 1, Conc. 1328 μM", "result": "−0.3073"},
      {"measurement": "MCP1 expression relative to Control, Mean", "setting": "Donor 1, Conc. 3320 μM", "result": "−2.417"},
      {"measurement": "MCP1 expression relative to Control, Mean", "setting": "Donor 1, Conc. 6639 μM", "result": "−0.205"},
      {"measurement": "MCP1 expression relative to Control, Mean", "setting": "Donor 2, Conc. 66 μM", "result": 0},
      {"measurement": "MCP1 expression relative to Control, Mean", "setting": "Donor 2, Conc. 1328 μM", "result": 26.62},
      {"measurement": "MCP1 expression relative to Control, Mean", "setting": "Donor 2, Conc. 3320 μM", "result": "−5.645"},
      {"measurement": "MCP1 expression relative to Control, Mean", "setting": "Donor 2, Conc. 6639 μM", "result": 18.62},
      {"measurement": "MCP1/CCL2 secretion", "result": "did not have an effect"}
    ]},
    {"smiles": "NC(=O)CC[C@H](N)C(=O)O", "note": "[glutamine, L-Glutamine]", "values": [
      {"measurement": "MCP1 expression relative to Control, Mean", "setting": "Donor 1, Conc. 749 μM", "result": 0},
      {"measurement": "MCP1 expression relative to Control, Mean", "setting": "Donor 1, Conc. 3747 μM", "result": "−0.8981"},
      {"measurement": "MCP1 expression relative to Control, Mean", "setting": "Donor 1, Conc. 11242 μM", "result": "−9.001"},
      {"measurement": "MCP1 expression relative to Control, Mean", "setting": "Donor 1, Conc. 22484 μM", "result": "−21.8392"},
      {"measurement": "MCP1 expression relative to Control, Mean", "setting": "Donor 2, Conc. 749 μM", "result": "2.84E−14"},
      {"measurement": "MCP1 expression relative to Control, Mean", "setting": "Donor 2, Conc. 3747 μM", "result": "−45.0574"},
      {"measurement": "MCP1 expression relative to Control, Mean", "setting": "Donor 2, Conc. 11242 μM", "result": "−90.6558"},
      {"measurement": "MCP1 expression relative to Control, Mean", "setting": "Donor 2, Conc. 22484 μM", "result": "−138.873"},
      {"measurement": "MCP1/CCL2 secretion", "result": "significantly decrease"}
    ]},
    {"smiles": "N=C(N)NCCC[C@H](N)C(=O)O", "note": "[arginine, L-Arginine]", "values": [
      {"measurement": "MCP1 expression relative to Control, Mean", "setting": "Donor 1, Conc. 109 μM", "result": "2.37E−15"},
      {"measurement": "MCP1 expression relative to Control, Mean", "setting": "Donor 1, Conc. 1088 μM", "result": 5.114},
      {"measurement": "MCP1 expression relative to Control, Mean", "setting": "Donor 1, Conc. 2720 μM", "result": 6.527},
      {"measurement": "MCP1 expression relative to Control, Mean", "setting": "Donor 1, Conc. 5440 μM", "result": 10.9386},
      {"measurement": "MCP1 expression relative to Control, Mean", "setting": "Donor 2, Conc. 109 μM", "result": "−4.7E−15"},
      {"measurement": "MCP1 expression relative to Control, Mean", "setting": "Donor 2, Conc. 1088 μM", "result": 24.95},
      {"measurement": "MCP1 expression relative to Control, Mean", "setting": "Donor 2, Conc. 2720 μM", "result": 24.06},
      {"measurement": "MCP1 expression relative to Control, Mean", "setting": "Donor 2, Conc. 5440 μM", "result": 8.494},
      {"measurement": "MCP1/CCL2 secretion", "result": "increased"}
    ]},
    {"smiles": "CC(=O)N[C@@H](CS)C(=O)O", "note": "[N-acetyl cysteine, N-acetylcysteine]", "values": [
      {"measurement": "MCP1 expression relative to Control, Mean", "setting": "Donor 1, Conc. 1000 μM", "result": "−0.7629"},
      {"measurement": "MCP1 expression relative to Control, Mean", "setting": "Donor 1, Conc. 2500 μM", "result": "−2.498"},
      {"measurement": "MCP1 expression relative to Control, Mean", "setting": "Donor 1, Conc. 5000 μM", "result": "−10.8919"},
      {"measurement": "MCP1 expression relative to Control, Mean", "setting": "Donor 1, Conc. 10000 μM", "result": "−17.6065"},
      {"measurement": "MCP1 expression relative to Control, Mean", "setting": "Donor 1, Conc. (X) 5", "result": "−0.7629"},
      {"measurement": "MCP1 expression relative to Control, Mean", "setting": "Donor 1, Conc. (X) 10", "result": "−2.498"},
      {"measurement": "MCP1 expression relative to Control, Mean", "setting": "Donor 1, Conc. (X) 20", "result": "−10.8919"},
      {"measurement": "MCP1 expression relative to Control, Mean", "setting": "Donor 1, Conc. (X) 40", "result": "−17.6065"},
      {"measurement": "MCP1 expression relative to Control, Mean", "setting": "Donor 2, Conc. 1000 μM", "result": 1.602},
      {"measurement": "MCP1 expression relative to Control, Mean", "setting": "Donor 2, Conc. 2500 μM", "result": "−4.0591"},
      {"measurement": "MCP1 expression relative to Control, Mean", "setting": "Donor 2, Conc. 5000 μM", "result": "−10.5725"},
      {"measurement": "MCP1 expression relative to Control, Mean", "setting": "Donor 2, Conc. 10000 μM", "result": "−28.4419"},
      {"measurement": "MCP1 expression relative to Control, Mean", "setting": "Donor 2, Conc. (X) 1000", "result": 1.602},
      {"measurement": "MCP1 expression relative to Control, Mean", "setting": "Donor 2, Conc. (X) 2500", "result": "−4.0591"},
      {"measurement": "MCP1 expression relative to Control, Mean", "setting": "Donor 2, Conc. (X) 5000", "result": "−10.5725"},
      {"measurement": "MCP1 expression relative to Control, Mean", "setting": "Donor 2, Conc. (X) 10000", "result": "−28.4419"},
      {"measurement": "MCP1/CCL2 secretion", "result": "significantly decrease"}
    ]}
  ]
}
